Measured values reported in patent US8466311B2, “Neuroprotective compositions and methods” (Sanford-Burnham Medical Research Institute, priority 2006, dated 2013).

Assays:
NFAT-binding site = assay: Enhancer element luciferase reporter p3xNFATluc; type: cell-based; settings: NEPP11 2 μM
Protocol: Because the E1 and E2 regions also contain other enhancer elements, we tested the effects of NEPP11 (2 μM) on the expression of luciferase activity derived from these elements, including the cAMP-responsive element (CRE; p3xCREluc), AP-1 binding site (p3xAP1luc), NF-κB binding site (p3xNF-κBluc), NFAT-binding site (p3xNFATluc), ETS-binding site (p3xETSluc), and MEF2-binding site (p3xMEF2luc).

ARE probe = assay: EMSA with biotin-labeled ARE probe, HT22 nuclear lysates; type: cell-based; settings: HT22 cells, NEPP11 1 μM, 8 h
Protocol: Electrophoretic mobility shift assays (EMSAs). Double-stranded antioxidant-responsive elements (AREs) were labeled by using a biotin 3′-end DNA labeling kit (Pierce). Nuclear lysates were incubated with the labeled probe for 20 min at room temperature, resolved on an 8% native polyacrylamide gel, and transferred to Hybond-N^+ (Amersham Pharmacia). Signals were visualized with peroxidase-conjugated streptavidin (Pierce).
To confirm that NEPP11 leads to an increase in transcription factors, including Nrf2, that bind to the ARE, we performed EMSAs. HT22 cells were incubated for 8 h with vehicle or NEPP11 (1 μM). EMSAs were performed by using 10 μg of nuclear lysates per lane and a biotin-labeled ARE probe. In one lane, anti-Nrf2 antibody (100×) was added to supershift Nrf2 protein binding to ARE probe. In another lane, an excess amount of non-labeled probe was added to the sample to compete out the labeled ARE probe from binding to proteins in the nuclear lysates. […] The band representing the labeled ARE probe was shifted in the presence of control lysates, indicating binding of endogenous transcription factors to the ARE. […] In contrast, the band was totally abrogated in the presence of excess unlabeled probe. […]

[1] = target: T1, bovine serum albumin (BSA) (Bos taurus, UniProt P02769); assay: Adduct formation with free cysteine of BSA (streptavidin blot); type: binding; settings: NEM pretreatment
T1 construct: purchased WAKO Chemicals Inc. (Tokyo, Japan) or Sigma (St. Louis, Mo.)
Protocol: We tested whether the free cysteine of bovine serum albumin (BSA) could form an adduct with NEPP compounds. If carbon #11 on the NEPP compounds binds to this free cysteine of BSA, then pretreatment with N-ethylmaleimide (NEM), in irreversible thiol alkylating agent, would abolish this binding. […] With streptavidin as a probe, we could then detect proteins bound to NEPP6-biotin. In order to study thiols as targets of NEPP binding, BSA (1 μg per lane) was incubated with various concentrations (0-1000 μM) of N-ethylmaleimide (NEM) for 30 minutes at room temperature. Vehicle or NEPP6-biotin (10 μM) in phosphate-buffered saline (PBS) was added and the mixture was incubated at room temperature for 5 h, subjected to sodium dodecyl sulfate polyacrylamide gel electrophoresis (SDS-PAGE), and probed with peroxidase-conjugated streptavidin. The gel was also stained with Coomassie brilliant blue.

[2] = tested on: phase 2 genes (GCL-L, GCL-H, HO-1, NQO1); assay: Phase 2 gene induction in PC12h cells (RT-PCR); type: cell-based; settings: 10 μM CA, 6-24 h
Protocol: RT-PCR. In order to examine phase 2 gene induction by CA in PC12h cells and brain lysates, RT-PCR of total RNA from cortical cultures was performed using the following primer pairs (Hosoya et al., J. Bioi. Chern. 29:27244-27250, 2005; Kobayashi et al., Mol. Cell. Biol. 26:221-229, 2006): CypA (89 bp), 5′-ACAGGTCCTGGCATCTTGTC-3′ (SEQ ID NO: 18)(sense) and 5′-[…] -3′ (SEQ ID NO: 19)(antisense); H0-1 (284 bp), 5′-CAGTCGCCTCCAGAGTTTCC -3′ (SEQ ID NO: 20)(sense) and 5′- TACAAGGAGGCCATCACCAGC-3′ (SEQ ID NO: 21)(antisense); GCL-M (280 bp), 5′- CTGCTAAACTGTTCATTGTAGG-3′ (SEQ ID NO: 22)(sense) and 5′- CTA TTG GGT TIT ACC TGT G-3′ (SEQ ID NO: 23)(antisense); GCL-C (213 bp), 5′- GTC TIC AGG TGA ACA TIC CAA GC-3′ (SEQ ID NO: 24)(sense) and 5′- TGTTCTTCAGGGGCTCCAGTC-3′ (SEQ 10 NO: 25)(antisense); and NQO1 (212 bp), 5′- GTG TAC AGC ATI GGC CAC AC-3′ (SEQ 10 NO: 26)(sense) and 5′AAATGATGGCCCACAGAAAG-3′ (SEQ ID NO: 27)(antisense).
Phase 2 enzymes represent an important effector activated by electrophilic-induction of the Keap1/Nrf2 pathway. In order to detect induction of the phase 2 enzymes γ-GCL light chain (GCL-L), γ-GCL heavy chain (GCL-H), HO-1, and NQO1, we performed RT-PCR using mRNA of PC12h cells pretreated with 10 μM CA. The cyclophilin A (CYPA) gene was used as an internal positive control.

PC12h cells = assay: Oxidative glutamate toxicity in PC12h cells (MTT assay); type: cell-based
Protocol: PC12h cells, PC12hW1B cells, and PC12hD5D cells (expressing Nrf2DN) were incubated with various concentrations of glutamate for 20 h. […] Various concentrations of CA were added to PC12, PC or PC12hD5D cells 1 h prior to exposure to 5 mM glutamate for 20 h.
PC12h and COST cell cultures.
Thus, we examined whether CA could protect PC12h cells from such insults. We prepared naïve PC12h cells, Nrf2WT-expressing PC12h cells (PC12hW1B), and Nrf2DN-expressing PC12h cells (PC12hD5D). In order to examine the effects of the Keap1/Nrf2 pathway on cell survival in the face of oxidative stress, we exposed the cells to a high concentration of glutamate. […] To visualize surviving and dead cells, we stained cultures with fluorescein diacetate (FDA) and propidium iodide (PI), respectively. Additionally, cell survival was quantified by the 3-(4,5-dimethylthiazol-2-yl)-2,5-diphenyl tetrazolium bromide (MTT) assay (FIG. 4A).
We next tested the hypothesis that CA-induced neuroprotection is mediated by the Keap1/NRf2 pathway.

[3] = Translocation of CA into the brain (HPLC of serum and brain); type: in vivo, mouse
Protocol: Translocation of CA into the brain detected by high-performance liquid chromatography (HPLC). For experiments testing penetration of drug into the CNS, we used adult male C57BL/6 mice (Charles River) weighing 22-26 g. The mice were kept in cages with ad libitum access to food and water under standardized housing conditions (natural light-dark cycle, temperature of 23±3° C., relative humidity of 50±10%). After a seven-day adaptation to laboratory conditions, the animals were randomly assigned to each experimental group (n=10 mice each). Four C57 BL/6 mice, fastened for 18 h, were each orally administered 3 mg of CA in 0.3 ml olive oil. One and three h after the injection, under ether anesthesia, serum and brain were isolated for chemical analysis. CA was extracted from tissue with acetonitrile and ethanol. CA levels were obtained by HPLC (column, μBondasphere C18; temperature, 40 C; HPLC system, Shimadzu [Kyoto, Japan] LC10Avp; detector, UV 230 nm; running solvent 2% acetic acid or acetonitrile, 30% B isocratic at 1 ml/min).
CA accumulation in the brain. For the development of CA as a protective agent against neurodegenerative diseases, penetration into the brain is an essential requirement. To examine this aspect, we administered CA orally to mice (3 mg per 25 g mouse) and measured the level of CA (catechol-form) in serum and brain parenchyma by HPLC.

T1 sequence (P02769 25-607): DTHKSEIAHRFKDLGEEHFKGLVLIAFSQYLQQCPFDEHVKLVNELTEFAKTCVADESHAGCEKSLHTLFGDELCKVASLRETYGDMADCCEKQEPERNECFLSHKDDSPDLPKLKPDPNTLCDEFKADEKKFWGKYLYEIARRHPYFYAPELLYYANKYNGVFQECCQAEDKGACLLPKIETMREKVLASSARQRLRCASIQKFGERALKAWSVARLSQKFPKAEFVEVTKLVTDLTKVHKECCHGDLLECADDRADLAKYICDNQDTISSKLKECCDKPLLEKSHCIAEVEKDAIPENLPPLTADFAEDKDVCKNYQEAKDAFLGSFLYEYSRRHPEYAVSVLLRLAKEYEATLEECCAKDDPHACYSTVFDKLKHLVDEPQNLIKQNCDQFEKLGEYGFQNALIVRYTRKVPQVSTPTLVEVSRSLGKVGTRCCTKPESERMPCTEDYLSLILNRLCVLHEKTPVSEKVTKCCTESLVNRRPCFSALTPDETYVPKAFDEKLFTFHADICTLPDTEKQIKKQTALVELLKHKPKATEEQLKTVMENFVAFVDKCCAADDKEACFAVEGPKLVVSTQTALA

In the case of `COC(=O)CCCCC/C=C1/C(=O)C=C[C@H]1CCCCCCc1ccc(C)cc1` [NEPP11], the “activity of p3xNFATluc” value (NFAT-binding site) is reported as “slightly depressed” and the “shifted ARE probe band intensity” value (ARE probe) is reported as “significant increase in the intensity of this band”.

In the case of `CC(C)c1cc2c(c(O)c1O)[C@@]1(C(=O)O)CCCC(C)(C)[C@@H]1CC2` [CA, carnosic acid], the “BSA adduct signal after pretreatment with NEM” value [1] is reported as “depressed the streptavidin signal in a dose-dependent manner”, the “induction of phase 2 genes” value [2] is reported as “All of the phase 2 genes were induced” and the “protective effects in PC12hD5D cells (Nrf2DN)” value (PC12h cells; CA) is reported as “significantly suppressed”. For the same molecule, the “concentrations protecting PC12h cells against oxidative glutamate toxicity” value (PC12h cells; dose-dependent, 5 mM glutamate 20 h, CA 1 h prior) was 0.1 to 1 µM, the brain permeability ([3]; mouse, in vivo) was “brain permeable” and the “time to reach significant levels in the brain” value ([3]; oral, 3 mg per 25 g mouse) was no more than 1 h.
